Measured values reported in publication PMC11520566, “Discovery of pyrazole-based analogs as CDK2 inhibitors with apoptotic-inducing activity: design, synthesis and molecular dynamics study” (RSC Advances, 2024).
“And” between values parts separate entries of the source, which are not always exact repeats. Equal values may be shown once.

Columns and labels:
[1] = target: T1, CDK2/cyclin A2 (Homo sapiens, UniProt P24941); assay: In vitro CDK2/cyclin A2 enzyme inhibition assay (ADP-Glo); format: biochemical; settings: for percentage enzyme activity: at 50 μM; for Relative activity: supplement S1, DMSO = 100, screen at 50 μM; for IC50: n = 3, read-out: IC50 against CDK2/cyclin A2
T1 construct: purchased Promega
Experimental: The studied pyrazoles 2a–g, 4, 7a–d, 8a and b, 9, and 10 were assessed for their in vitro CDK2/cyclin A2 enzyme inhibition assay at a concentration of 50 μM using the Promega CDK2/cyclinA2 kinase enzyme system coupled with the ADP-Glo assay.[32,33] The percentage enzyme activity was the lowest for five compounds, namely 4, 7a, 7d, 8a, and 9 with values of 24.7%, 17.5%, 11.5%, 27.1% and 14.5%, respectively.
The in vitro assay of CDK2/cyclin A2 protein kinase was carried out on all the synthesized compounds. The kinase assay was performed in a 96-well white plate with a reaction volume of […]. The reaction was performed in four steps as follows: 2.5 μL of the test compounds or 5% DMSO and 5 μL of CDK2/cyclin A2 enzyme (1.6 ng) was added, and then incubated at room temperature for 30 min. Then, 5 μL of 50 μM ATP. 0.1 μg μL^−1 histone H1 was added and incubated for 10 min. The reaction was stopped by adding 12.5 μL of ADP-Glo™ Reagent and incubated for 40 min. Then 25 μL of kinase detection reagent was added to each well and incubated for 60 min before detection with luminescence (Integration time 0.5–1 s).[25,32,33]

[2] = test system: MCF7; assay: NCI 60 single dose screen, Breast cancer; format: cell-based, human; settings: single dose 10 μM
Experimental: (§1) The newly synthesized pyrazoles 2a–g, 7a–d, 8a and b, 9, and 10 were submitted to the National Cancer Institute (NCI) Developmental Therapeutics Program (http://www.dtp.nci.nih.gov) for assessment of their potential antiproliferative activity against a panel of NCI 60 cancer cell lines. All compounds were approved for screening against the approved 60 cancer cell lines at a single dose of 10 μM. The human cancer cell lines were derived from 9 variant cancer types including leukemia, melanoma, lung, colon, CNS, ovarian, renal, prostate and breast cancers. The results are presented as percentage of growth inhibition (GI%) of the screened compounds against the full panel of cell lines.
(§2) Under sterile conditions, the cell lines were grown in RPMI 1640 media (Gibco, NY, USA) supplemented with 10% fetal bovine serum (Biocell, CA, USA), and […] cell/mL was used to test the growth inhibition activity of the synthesized compounds. The compounds with concentrations ranging from 0.01 to 100 μM were prepared in phosphate buffer saline. Each compound was initially solubilized in dimethyl sulfoxide (DMSO); however, each final dilution contained less than 1% DMSO. Solutions of different concentrations (0.2 mL) were pipetted into the separate well of a microtiter tray in duplicate. Cell culture (1.8 mL) containing a cell population of […] cells per mL was pipetted into each well. Controls, containing only phosphate buffer saline and DMSO at identical dilutions, were also prepared in the same manner. These cultures were incubated in a humidified incubator at 37 °C. The incubator was supplied with 5% CO2 atmosphere. After 48 h, the cells in each well were diluted 10 times with saline and counted using a Coulter counter. The counts were corrected for the dilution.[34]

[3] = test system: CDK 1, 2, 4, 6 and 9 isoforms; parameters: method as in PMID 18656911; settings: range over CDK 1, 2, 4, 6 and 9 isoforms; cited from earlier work
[4] = test system: CDK2; settings: cited from earlier work; for IC50: CDK2
[5] = test system: MDA-MB-468; assay: NCI 60 single dose screen, Breast cancer; format: cell-based, human; settings: single dose 10 μM
Experimental: as §1, §2

[6] = test system: NCI 60 cancer cell lines; assay: NCI 60 single dose screen, mean over full panel; format: cell-based, human; settings: mean over NCI 60 cell lines; single dose 10 μM
Experimental: as §1, §2

[7] = in vitro; settings: human
[8] = test system: CCRF-CEM; assay: NCI 60 single dose screen, Leukemia; format: cell-based, human; settings: single dose 10 μM
Experimental: as §1, §2

[9] = test system: T-47D; assay: NCI 60 single dose screen, Breast; format: cell-based, human; settings: single dose 10 μM
Experimental: as §1
Under sterile conditions, the cell lines were grown in RPMI 1640 media (Gibco, NY, USA) supplemented with 10% fetal bovine serum (Biocell, CA, USA), and […] cell/mL was used to test the growth inhibition activity of the synthesized compounds. The compounds with concentrations ranging from 0.01 to 100 μM were prepared in phosphate buffer saline. Each compound was initially solubilized in dimethyl sulfoxide (DMSO); however, each final dilution contained less than 1% DMSO. Solutions of different concentrations (0.2 mL) were pipetted into the separate well of a microtiter tray in duplicate. […] After 48 h, the cells in each well were diluted 10 times with saline and counted using a Coulter counter. […]

[10] = test system: HCT-116 cell line; assay: MTT cell viability assay; format: cell-based; settings: Homo sapiens, read-out: IC50 (cytotoxicity, MTT)
[11] = test system: SK-MEL-2; assay: NCI 60 single dose screen, Melanoma; format: cell-based, human; settings: single dose 10 μM
Experimental: as §1, §2

[12] = test system: MALME-3M; assay: NCI 60 single dose screen, Melanoma; format: cell-based, human; settings: single dose 10 μM
Experimental: as §1, §2

[13] = test system: CDK2; assay: Western blot of CDK2 expression in HCT-116 cells; format: cell-based; settings: 1 μM, 48 h, vs vehicle treated cells
Excerpt: The method of sodium dodecyl sulfate polyacrylamide gel electrophoresis (SDS-PAGE) is employed to separate proteins based on their size. When combined with western blotting (immunoblotting), both techniques are commonly used to identify the presence and/or relative abundance of a specific protein within a sample containing a complex mixture of proteins.[36] In this process, each sample's total protein content is loaded onto a gel and separated by electrophoresis, allowing proteins to migrate through the gel matrix under the influence of an electric current. To facilitate protein migration, the proteins are initially denatured and given a negative charge by exposure to a detergent like SDS. A molecular weight marker with known-sized bands assists in identifying proteins of interest. […] Typically, the secondary antibody is linked to an enzyme that generates luminescence upon reacting with its substrate. The intensity of the luminescence, directly correlating with the amount of protein that interacted with the antibody, is captured by a Bio-Rad Imager.[36] […]
HCT-116 cells were treated with either 3 μM of compound 4 and 1 μM of compound 9 and incubated 48 h. The cells were lysed by 1× RIPA buffer containing protease and phosphatase inhibitors to quantify the protein concentration by BCA protein assay. […]

Row | Molecule | Relative activity [1] | melting point [°C] | also measured
1 | 4-Chloro-N-(4-cyano-3-(phenylamino)-1H-pyrazol-5-yl)benzamide [Compound 8a] | 56.4 | – | percentage enzyme activity [1]: 27.1%
2 | 5-((4-Methoxybenzylidene)amino)-3-(phenylamino)-1H-pyrazole-4-carbonitrile [Compound 7c] | 68.6 | – | GI% [2]: 79.41%
4 | Nc1n[nH]c(N)c1/N=N/c1ccc(O)cc1 [CAN508 (III)] | – | – | IC50 [4]: 350 nM
5 | O=C1NN=C(Nc2ccccc2)C1=NNc1ccccc1 [Compound 2a, 5-(Phenylamino)-4-(2-phenylhydrazono)-2,4-dihydro-3H-pyrazol-3-one] | 51.4 | 215 to 217 | GI% [2]: 73.8%
6 | O=C1NN=C(Nc2ccccc2)C1=NNc1ccc(F)cc1 [Compound 2b, 4-(2-(4-Fluorophenyl)hydrazono)-5-(phenylamino)-2,4-dihydro-3H-pyrazol-3-one] | 55.6 | 239 to 240 | GI% [5]: 72.25%; GI% [2]: 86.1%
7 | O=C1NN=C(Nc2ccccc2)C1=NNc1ccc(Cl)cc1 [Compound 2c, 4-(2-(4-Chlorophenyl)hydrazono)-5-(phenylamino)-2,4-dihydro-3H-pyrazol-3-one] | 59.3 | 249 to 251 | GI% [2]: 77.1%
8 | O=C1NN=C(Nc2ccccc2)C1=NNc1ccc(O)cc1 [Compound 2d, 4-(2-(4-Hydroxyphenyl)hydrazono)-5-(phenylamino)-2,4-dihydro-3H-pyrazol-3-one] | 40.2 | 257 to 259 | mean GI% [6]: 27.12%
9 | Cc1ccc(NN=C2C(=O)NN=C2Nc2ccccc2)cc1 [Compound 2e, 5-(Phenylamino)-4-(2-(p-tolyl)hydrazono)-2,4-dihydro-3H-pyrazol-3-one] | 56.6 | 251 to 253 | mean GI% [6]: 6.87%
10 | COc1ccc(NN=C2C(=O)NN=C2Nc2ccccc2)cc1 [Compound 2f, 4-(2-(4-Methoxyphenyl)hydrazono)-5-(phenylamino)-2,4-dihydro-3H-pyrazol-3-one] | 62.1 | 240 to 242 | mean GI% [6]: 10.24%
11 | CC(=O)c1ccc(NN=C2C(=O)NN=C2Nc2ccccc2)cc1 [Compound 2g, 4-(2-(4-Acetylphenyl)hydrazono)-5-(phenylamino)-2,4-dihydro-3H-pyrazol-3-one] | 59.5 | 265 to 267 | –
12 | N#Cc1c(Nc2ccccc2)n[nH]c1N=Cc1ccc(F)cc1 [Compound 7a, 5-((4-Fluorobenzylidene)amino)-3-(phenylamino)-1H-pyrazole-4-carbonitrile] | 42.3 | 265 to 267 | IC50 [1]: 2000 nM and 2010 nM
13 | N#Cc1c(Nc2ccccc2)n[nH]c1N=Cc1ccc(Cl)cc1 [Compound 7b, 5-((4-Chlorobenzylidene)amino)-3-(phenylamino)-1H-pyrazole-4-carbonitrile] | 70.7 | 273 to 275 | –
14 | CN(C)c1ccc(C=Nc2[nH]nc(Nc3ccccc3)c2C#N)cc1 [Compound 7d, 5-((4-(Dimethylamino)benzylidene)amino)-3-(phenylamino)-1H-pyrazole-4-carbonitrile] | 11.5 | 284 to 285 | percentage enzyme activity [1]: 11.5%; IC50 [1]: 1470 nM
15 | COc1ccc(C(=O)Nc2[nH]nc(Nc3ccccc3)c2C#N)cc1 [Compound 8b, N-(4-Cyano-3-(phenylamino)-1H-pyrazol-5-yl)-4-methoxybenzamide] | 27.1 | 233 to 235 | IC50 [1]: 18700 nM
16 | N#Cc1c(Nc2ccccc2)n[nH]c1NCc1ccccc1 [Compound 9, 5-(benzylamino)-3-(phenylamino)-1H-pyrazole-4-carbonitrile] | 14.5 | 136 to 137 | IC50 [7]: 56.8 µM; GI% [8]: 81.65%; GI% [9]: 82.76%; IC50 [10]: 10 µM; GI% [11]: 79.33%; GI% [12]: 78.10%; expression of CDK-2 (western blot) [13]: inhibitions in the expression of CDK-2; mean GI% [6]: 65.90%; percentage enzyme activity [1]: 14.5%; IC50 [1]: 960 nM
17 | CC(=O)N(C(C)=O)c1[nH]nc(Nc2ccccc2)c1C#N [Compound 10, N-acetyl-N-(4-cyano-3-(phenylamino)-1H-pyrazol-5-yl)acetamide] | 49.9 | 173 to 175 | –
18 | NC(=O)c1ccc(-c2ccc(F)c(C(=O)Nc3c[nH]nc3C(=O)Nc3ccc(F)cc3)c2F)cn1 [DC-K2in212 (IV)] | – | – | IC50 [4]: 295 nM; selectivity against CDK2 over CDK1 [4]: 17 fold
